Experimental data taken from PubChem BioAssay (NCI).
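Dose response: 5 concentrations. Exposure: 48 h. Format: 96-well plates. Endpoint: linear interpolation; highest concentration if not reached. TGI: total growth inhibition.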

How the values were obtained:
Experiment in all cases: NCI-60 cell line screen, 48 h
786-0 renal = test system: 786-0 renal
A498 renal = test system: A498 renal
A549 NSCLC = test system: A549 NSCLC
ACHN renal = test system: ACHN renal
BT-549 breast = test system: BT-549 breast
CAKI-1 renal = test system: CAKI-1 renal
CCRF-CEM leukemia = test system: CCRF-CEM leukemia
COLO 205 colon = test system: COLO 205 colon
DU-145 prostate = test system: DU-145 prostate
EKVX NSCLC = test system: EKVX NSCLC
HCC-2998 colon = test system: HCC-2998 colon
HCT-116 colon = test system: HCT-116 colon
HCT-15 colon = test system: HCT-15 colon
HL-60(TB) leukemia = test system: HL-60(TB) leukemia
HOP-62 NSCLC = test system: HOP-62 NSCLC
HOP-92 NSCLC = test system: HOP-92 NSCLC
HS 578T breast = test system: HS 578T breast
IGROV1 ovarian = test system: IGROV1 ovarian
K-562 leukemia = test system: K-562 leukemia
KM12 colon = test system: KM12 colon
LOX IMVI melanoma = test system: LOX IMVI melanoma
M14 melanoma = test system: M14 melanoma
MALME-3M melanoma = test system: MALME-3M melanoma
MDA-MB-231 breast = test system: MDA-MB-231 breast
MDA-MB-435 = test system: MDA-MB-435
MDA-N = test system: MDA-N
MOLT-4 leukemia = test system: MOLT-4 leukemia
NCI-H23 lung = test system: NCI-H23 lung
NCI-H460 lung = test system: NCI-H460 lung
NCI-H522 lung = test system: NCI-H522 lung
NCI/ADR-RES ovarian = test system: NCI/ADR-RES ovarian
OVCAR-3 ovarian = test system: OVCAR-3 ovarian
OVCAR-4 ovarian = test system: OVCAR-4 ovarian
OVCAR-5 ovarian = test system: OVCAR-5 ovarian
OVCAR-8 ovarian = test system: OVCAR-8 ovarian
PC-3 prostate = test system: PC-3 prostate
RPMI-8226 leukemia = test system: RPMI-8226 leukemia
RXF 393 renal = test system: RXF 393 renal
SF-268 CNS = test system: SF-268 CNS
SF-295 CNS = test system: SF-295 CNS
SF-539 CNS = test system: SF-539 CNS
SK-MEL-2 melanoma = test system: SK-MEL-2 melanoma
SK-MEL-28 melanoma = test system: SK-MEL-28 melanoma
SK-MEL-5 melanoma = test system: SK-MEL-5 melanoma
SK-OV-3 ovarian = test system: SK-OV-3 ovarian
SN12C renal = test system: SN12C renal
SNB-19 CNS = test system: SNB-19 CNS
SNB-75 CNS = test system: SNB-75 CNS
SR leukemia = test system: SR leukemia
SW-620 colon = test system: SW-620 colon
T-47D breast = test system: T-47D breast
U251 CNS = test system: U251 CNS
UACC-257 melanoma = test system: UACC-257 melanoma
UACC-62 melanoma = test system: UACC-62 melanoma
UO-31 renal = test system: UO-31 renal
HT29 colon = test system: HT29 colon
MCF7 breast = test system: MCF7 breast
NCI-H226 lung = test system: NCI-H226 lung
TK-10 renal = test system: TK-10 renal

Measured: TGI

CNC(=S)N/N=C(\C)c1cc(OC)ccc1O
not listed: HT29 colon | MCF7 breast | NCI-H226 lung | TK-10 renal
> 100 µM: all other assays above

CCOc1ccc(NC(=O)C(=O)C2C(=O)Nc3ccccc3S2=O)cc1 (centres undefined)
not listed: COLO 205 colon | DU-145 prostate | HCC-2998 colon | K-562 leukemia | MOLT-4 leukemia | SNB-19 CNS | SR leukemia
> 100 µM: all other assays above

O=C1Cc2c([nH]c3ccc([N+](=O)[O-])cc23)-c2ccccc2N1
> 18.2 µM: ACHN renal
> 83.1 µM: U251 CNS
> 19.7 µM: A498 renal
2.38 µM: EKVX NSCLC
16.8 µM: SF-539 CNS
> 95.7 µM: CAKI-1 renal
4.46 µM: HT29 colon
> 94.6 µM: SF-268 CNS
2.98 µM: RPMI-8226 leukemia
6.11 µM: OVCAR-4 ovarian
2.02 µM: SK-MEL-5 melanoma
> 62.8 µM: UACC-257 melanoma
> 55.1 µM: KM12 colon
0.325 µM: CCRF-CEM leukemia
> 49.1 µM: HCC-2998 colon
> 63 µM: NCI-H460 lung
6.37 µM: NCI-H23 lung
5.62 µM: SK-MEL-2 melanoma
> 84 µM: NCI/ADR-RES ovarian
> 37.9 µM: TK-10 renal
> 58.5 µM: SW-620 colon
> 32.7 µM: SNB-19 CNS
18.2 µM: NCI-H226 lung
0.77 µM: OVCAR-5 ovarian
19.1 µM: SN12C renal
8.44 µM: MDA-N
> 21.2 µM: HS 578T breast
> 30 µM: M14 melanoma
> 26.2 µM: NCI-H522 lung
1.96 µM: HCT-116 colon
1.16 µM: COLO 205 colon
1.44 µM: MOLT-4 leukemia
> 56.8 µM: A549 NSCLC
18.8 µM: HOP-62 NSCLC
0.752 µM: HL-60(TB) leukemia
9.23 µM: K-562 leukemia
14.6 µM: RXF 393 renal
not listed: DU-145 prostate | OVCAR-3 ovarian | SK-MEL-28 melanoma | SNB-75 CNS | SR leukemia | UACC-62 melanoma | UO-31 renal
> 100 µM: all other assays above
